Consider nine molecules from patent US20210070747A1, “2(1H)-QUINOLINONE DERIVATIVE” (priority 2017, published 2021).

Structures are written as SMILES. Values after ≈ are worked out from the molar mass of the structure shown. Read-outs that look alike come from different tables or passages of the source.

Test [1] concerns N. gonorrhoeae ATCC 49226. Put plainly: Test for evaluating antibacterial activity (N. gonorrhoeae), broth microdilution MIC. Type of test: cell-based. Particulars: Neisseria gonorrhoeae, ATCC49226; 35° C., 24 hours, gonococcal broth. In outline:
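Broth microdilution in gonococcal broth with 1% supplement C, inoculum from overnight chocolate II agar culture at McFarland 0.5 diluted 5-fold.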
(In general: Broth dilution looks for growth in wells or tubes with falling amounts of substance.)

Test [2] has as its target T1, E. coli topoisomerase IV (Escherichia coli, UniProt P20083).
T1 construct: purchased Inspiralis
Description: Test for evaluating the activity of inhibiting E. coli topoisomerase IV enzyme (relaxation). In kind it is biochemical. The method, then:
The enzymatic activity of E. coli topoisomerase IV was measured by a method comprising reacting topoisomerase IV and its substrate, supercoiled pBR322 (Inspiralis), in the presence of ATP and detecting the post-reaction supercoiled pBR322/relaxed pBR322 ratio with H19.
Specifically, to 2 ng/μL of supercoiled pBR322, E. coli topoisomerase IV enzyme (Inspiralis) was added at a final concentration of 0.0075 U/μL and the mixture was incubated for 30 minutes at room temperature. This reaction was carried out in 20 mmol/L tris-HCl buffered solution (pH 8.0) comprising 0.5 mmol/L ATP, 0.005% bridge 35, 35 mmol/L ammonium acetate, 8 mmol/L magnesium chloride, 4.6% glycerol, and 1 mmol/L dithiothreitol. To the reaction mixture, H19 was added to bring the reaction to an end; thereafter, the supercoiled pBR322/relaxed pBR322 ratio was detected at excitation wavelength/emission wavelength=485 nm/535 nm. An inhibition curve was obtained by allowing the analyte compound to be present at varying concentrations during the reaction described above.

Test [3] addresses T2, E. coli DNA gyrase (Escherichia coli, UniProt P0AES6).
T2 construct: made in house; host or cells: E. coli BL21 (DE3)
Description: Test for evaluating the activity of inhibiting E. coli DNA gyrase enzyme (Method 2, supercoiling, recombinant gyrA/gyrB complex). Type of test: biochemical. In outline:
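Recombinant E. coli gyrA/gyrB complex (His-tagged, BL21(DE3)-expressed, Ni-NTA purified; 0.135 nmol/mL final) supercoiled relaxed pBR322 (1 ng/μL) with 0.5 mmol/L ATP in pH 8.0 Tris buffer, 60 min at room temperature. H19 stopped the reaction; supercoiled/relaxed ratio read at 485/535 nm, inhibition curves built from varying compound concentrations.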

Test [4] relates to E. Coli ATCC 25922. Description: Test for evaluating antibacterial activity (E. coli), broth microdilution MIC. The note with it: Escherichia coli, ATCC25922; 35° C., 18 hours, cation-adjusted Mueller-Hinton medium. Type of test: cell-based. In outline:
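Broth microdilution per modified CLSI method in cation-adjusted Mueller-Hinton medium. Inoculum from overnight heart infusion agar growth, McFarland 0.5 suspension diluted 10-fold; incubation 35° C for 18 hours. MIC taken as lowest drug concentration with no visible growth.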

[5] abbreviates: read-out: E. Coli TopoIV relaxation IC50.
The mark [6] stands for this setting: Method 2, read-out: E. Coli Gyrase supercoiling IC50.

T1 sequence (P20083 whole entry): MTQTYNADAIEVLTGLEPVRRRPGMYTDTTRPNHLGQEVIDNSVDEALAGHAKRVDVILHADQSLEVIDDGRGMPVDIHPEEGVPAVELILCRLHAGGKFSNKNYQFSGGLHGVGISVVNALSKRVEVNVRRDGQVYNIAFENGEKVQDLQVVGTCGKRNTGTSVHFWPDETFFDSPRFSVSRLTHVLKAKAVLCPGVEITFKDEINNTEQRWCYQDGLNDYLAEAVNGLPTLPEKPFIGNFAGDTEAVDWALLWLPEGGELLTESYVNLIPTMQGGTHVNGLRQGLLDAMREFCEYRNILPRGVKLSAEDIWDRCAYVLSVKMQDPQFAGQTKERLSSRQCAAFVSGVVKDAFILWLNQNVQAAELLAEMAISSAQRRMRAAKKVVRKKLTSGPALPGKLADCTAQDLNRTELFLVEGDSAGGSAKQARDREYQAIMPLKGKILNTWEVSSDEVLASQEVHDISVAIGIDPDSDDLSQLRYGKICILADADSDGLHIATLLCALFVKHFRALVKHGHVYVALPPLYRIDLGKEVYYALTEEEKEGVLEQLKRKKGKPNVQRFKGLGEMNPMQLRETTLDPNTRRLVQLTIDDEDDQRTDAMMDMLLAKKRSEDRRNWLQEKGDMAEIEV
T1 sequence (P0AFI2 whole entry, further chain): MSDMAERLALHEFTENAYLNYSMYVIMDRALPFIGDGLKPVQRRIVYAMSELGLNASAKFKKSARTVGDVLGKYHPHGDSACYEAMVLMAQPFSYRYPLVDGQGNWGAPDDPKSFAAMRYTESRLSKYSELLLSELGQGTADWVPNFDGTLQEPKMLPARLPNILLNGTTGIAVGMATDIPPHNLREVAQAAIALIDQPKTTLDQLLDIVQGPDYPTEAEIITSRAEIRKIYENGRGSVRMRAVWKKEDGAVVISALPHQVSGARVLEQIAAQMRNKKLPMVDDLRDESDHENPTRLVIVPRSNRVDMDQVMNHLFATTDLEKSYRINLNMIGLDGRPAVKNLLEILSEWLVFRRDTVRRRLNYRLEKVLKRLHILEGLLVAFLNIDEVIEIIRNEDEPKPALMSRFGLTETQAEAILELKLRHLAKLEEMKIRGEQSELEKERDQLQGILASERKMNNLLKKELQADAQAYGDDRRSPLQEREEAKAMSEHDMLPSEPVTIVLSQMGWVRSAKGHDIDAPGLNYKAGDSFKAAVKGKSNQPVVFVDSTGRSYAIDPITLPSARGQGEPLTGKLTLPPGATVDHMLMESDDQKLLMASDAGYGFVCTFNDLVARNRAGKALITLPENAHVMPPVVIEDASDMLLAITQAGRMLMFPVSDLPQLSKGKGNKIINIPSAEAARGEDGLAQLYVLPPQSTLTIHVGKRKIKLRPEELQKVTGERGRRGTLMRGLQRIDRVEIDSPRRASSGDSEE

What is called MIC is the least concentration at which growth counts as inhibited. Lower therefore signals a more susceptible organism. The term IC50 denotes the point on the concentration scale where inhibition reaches its midpoint. With `CNc1cc(F)cc2cc(C(=O)Nc3ccc(C(=O)O)cc3CN(C)C)c(=O)[nH]c12` [Example 85, 3-[(dimethylamino)methyl]-4-{[6-fluoro-8-(methylamino)-2-oxo-1,2-dihydroquinoline-3-carbonyl]amino} benzoic acid], the minimal inhibitory concentration (MIC) in test [1] is 2 µg/mL (≈ 4.85 µM); in test [4] it was > 4 µg/mL. The IC50 in test [2] was 176 nM; in test [3], 0.61 nM.

On to `CNc1cc(F)cc2cc(C(=O)Nc3ccc(C(=O)O)cc3CN3CCCCC3)c(=O)[nH]c12` [Example 96, 4-{[6-fluoro-8-(methylamino)-2-oxo-1,2-dihydroquinoline-3-carbonyl]amino}-3-[(piperidine-1-yl)methyl] benzoic acid], for which the MIC in test [1] amounted to 0.015 µg/mL (≈ 0.0332 µM); in test [4], 4 µg/mL (≈ 8.84 µM). Moreover, the IC50 is 15.3 nM in test [2] and 0.31 nM in test [3].

Take `CCCCCN(C)Cc1cc(C(=O)O)ccc1NC(=O)c1cc2cc(F)cc(NC)c2[nH]c1=O` [Example 98, 4-{[6-fluoro-8-(methylamino)-2-oxo-1,2-dihydroquinoine-3-carbonyl]amino}-3-{[methyl (pentyl)amino)methyl} benzoic acid]: the MIC in test [1] turned out to be 0.06 µg/mL (≈ 0.128 µM); in test [4], 4 µg/mL (≈ 8.54 µM). In addition, the IC50 in test [2] amounted to 41.4 nM; in test [3], 0.21 nM.

With `CNc1cc(F)cc2cc(C(=O)Nc3ccc(C(=O)O)cc3CN(CCO)C3CCCCC3)c(=O)[nH]c12.Cl` [Example 104, 3-{[cyclohexyl (2-hydroxyethyl)amino]methyl}-4-{[6-fluoro-8-(methylamino)-2-oxo-1,2-dihydroquinoline-3-carbonyl]amino} benzoic acid-hydrochloride], the values for the MIC in test [1] and in test [4] were 0.015 µg/mL and 8 µg/mL, respectively. Also, the IC50 worked out at 23.4 nM in test [2] and 0.29 nM in test [3].

Consider `CNc1cc(F)cc2cc(C(=O)Nc3ccc(C(=O)O)cc3CN(CC(=O)O)C3CCCCC3)c(=O)[nH]c12` [Example 107, 3-{[(carboxymethyl) (cyclohexyl)amino]methyl} -4-{[6-fluoro-8-(methylamino)-2-oxo-1,2-dihydroquinoline-3-carbonyl]amino} benzoic acid], for which the figures for the MIC in test [1] and in test [4] were 0.5 µg/mL (≈ 0.953 µM) and > 64 µg/mL, respectively. Besides, the IC50 in test [2] (setting [5]) stood at 76.3 nM; in test [3] (setting [6]) it was 0.57 nM.

Regarding `CNc1cc(F)cc2c(O)c(C(=O)Nc3ccc(C(=O)O)cc3)c(=O)[nH]c12` [Example 117, 4-[[6-Fluoro-4-hydroxy-8-(methylamino)-2-oxo-1,2-dihydroquinoline-3-carbonyl]amino]benzoic Acid], the MIC in test [1] is 0.0005 µg/mL (≈ 0.00135 µM); in test [4] it was 1 µg/mL (≈ 2.69 µM). The IC50 in test [2] (setting [5]) was 62.9 nM; in test [3] (setting [6]) it was 1.1 nM.

On to `CNc1cc(F)cc2cc(C(=O)Nc3ccc(C(=O)NS(=O)(=O)N(C)C)cc3)c(=O)[nH]c12` [Example 146, N-{4-[(dimethylsulfamoyl)carbamoyl]phenyl}-6-fluoro-8-(methylamino)-2-oxo-1,2-dihydroquinoline-3-carboxamide], for which the MIC in test [1] came out at 0.008 µg/mL (≈ 0.0173 µM); in test [4] it was 16 µg/mL (≈ 34.7 µM). The results for the IC50 in test [2] (setting [5]) and in test [3] (setting [6]) were 51.9 nM and 0.43 nM, respectively.

As to `CNc1cc(F)cc2c(O)c(C(=O)Nc3ccc(C(=O)NS(=O)(=O)N(C)C)cc3)c(=O)[nH]c12` [Example 148, N-{4-[(dimethyl-sulfamoyl)carbamoyl]phenyl}-6-fluoro-4-hydroxy-8-(methylamino)-2-oxo-1,2-dihydroquinoline-3-carboxamide], the MIC was ≤ 0.0005 µg/mL in test [1] and 1 µg/mL (≈ 2.09 µM) in test [4]. For the same molecule, the IC50 in test [2] was 127 nM; in test [3], 2.66 nM.

In the case of `CNc1cc(F)cc2c(O)c(C(=O)Nc3ccc(C(=O)O)cc3CN3CCCCC3)c(=O)[nH]c12.O=C(O)C(F)(F)F` [Example 153, 4-{[6-fluoro-4-hydroxy-8-(methylamino)-2-oxo-1,2-dihydroquinoline-3-carbonyl]amino}-3-[(piperidine-1-yl)methyl]benzoic acid-trifluoroacetate], the MIC in test [1] worked out at 0.06 µg/mL; in test [4] it was 8 µg/mL. In addition, the IC50 was found to be 4930 nM in test [2] and 7.53 nM in test [3].
